What all share (format): cell-based
Common to all, as to details: compounds at 50 nM and 500 nM

One assay addresses T1, IKZF2 (Homo sapiens, UniProt Q96SW2+Q9UKS7).
T1 construct: The supernatant was aspirated as the extracted total cell protein; endogenous in cells; host or cells: human peripheral blood mononuclear cells (hPBMCs)
The experiment in a line: Western blot degradation of IKZF2 in hPBMCs (24 h). The essentials:
(§1)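 PBMC Western blot, 24 h treatment; test levels 50 nM and 500 nM. Band density ÷ internal control, normalised → % remaining; degradation (%) = 1 − remaining.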

The target of the next assay is T2, IKZF1 (Homo sapiens, UniProt Q13422+Q96SW2).
T2 construct: The supernatant was aspirated as the extracted total cell protein; endogenous in cells; host or cells: human peripheral blood mononuclear cells (hPBMCs)
T2 sequence (Q13422 whole entry): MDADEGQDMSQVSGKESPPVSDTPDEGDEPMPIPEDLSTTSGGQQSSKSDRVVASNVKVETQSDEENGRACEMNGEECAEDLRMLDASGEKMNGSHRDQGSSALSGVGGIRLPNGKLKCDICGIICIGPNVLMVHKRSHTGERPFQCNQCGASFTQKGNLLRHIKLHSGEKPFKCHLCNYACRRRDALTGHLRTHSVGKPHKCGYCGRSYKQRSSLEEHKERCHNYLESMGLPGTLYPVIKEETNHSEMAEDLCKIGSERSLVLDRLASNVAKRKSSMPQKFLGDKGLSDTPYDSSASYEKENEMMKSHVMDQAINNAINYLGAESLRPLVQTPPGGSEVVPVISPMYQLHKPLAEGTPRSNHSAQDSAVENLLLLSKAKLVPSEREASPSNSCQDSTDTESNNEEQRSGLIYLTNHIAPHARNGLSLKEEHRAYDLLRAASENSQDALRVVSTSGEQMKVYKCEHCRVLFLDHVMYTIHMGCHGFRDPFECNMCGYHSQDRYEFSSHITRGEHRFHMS
T2 sequence (Q96SW2 whole entry): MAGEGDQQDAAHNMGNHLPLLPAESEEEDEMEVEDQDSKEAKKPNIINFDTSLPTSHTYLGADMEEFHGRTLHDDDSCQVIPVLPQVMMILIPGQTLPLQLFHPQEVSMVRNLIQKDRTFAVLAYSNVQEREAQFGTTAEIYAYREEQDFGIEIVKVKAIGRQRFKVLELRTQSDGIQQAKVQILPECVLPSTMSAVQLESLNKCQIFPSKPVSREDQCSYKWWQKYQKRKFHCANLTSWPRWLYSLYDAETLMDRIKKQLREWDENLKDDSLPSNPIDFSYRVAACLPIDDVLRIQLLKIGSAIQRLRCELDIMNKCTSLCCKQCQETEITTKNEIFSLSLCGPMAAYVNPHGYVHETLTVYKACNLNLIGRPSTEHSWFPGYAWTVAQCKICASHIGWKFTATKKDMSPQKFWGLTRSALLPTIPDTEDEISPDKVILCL
T2 sequence (Q16531 whole entry partner): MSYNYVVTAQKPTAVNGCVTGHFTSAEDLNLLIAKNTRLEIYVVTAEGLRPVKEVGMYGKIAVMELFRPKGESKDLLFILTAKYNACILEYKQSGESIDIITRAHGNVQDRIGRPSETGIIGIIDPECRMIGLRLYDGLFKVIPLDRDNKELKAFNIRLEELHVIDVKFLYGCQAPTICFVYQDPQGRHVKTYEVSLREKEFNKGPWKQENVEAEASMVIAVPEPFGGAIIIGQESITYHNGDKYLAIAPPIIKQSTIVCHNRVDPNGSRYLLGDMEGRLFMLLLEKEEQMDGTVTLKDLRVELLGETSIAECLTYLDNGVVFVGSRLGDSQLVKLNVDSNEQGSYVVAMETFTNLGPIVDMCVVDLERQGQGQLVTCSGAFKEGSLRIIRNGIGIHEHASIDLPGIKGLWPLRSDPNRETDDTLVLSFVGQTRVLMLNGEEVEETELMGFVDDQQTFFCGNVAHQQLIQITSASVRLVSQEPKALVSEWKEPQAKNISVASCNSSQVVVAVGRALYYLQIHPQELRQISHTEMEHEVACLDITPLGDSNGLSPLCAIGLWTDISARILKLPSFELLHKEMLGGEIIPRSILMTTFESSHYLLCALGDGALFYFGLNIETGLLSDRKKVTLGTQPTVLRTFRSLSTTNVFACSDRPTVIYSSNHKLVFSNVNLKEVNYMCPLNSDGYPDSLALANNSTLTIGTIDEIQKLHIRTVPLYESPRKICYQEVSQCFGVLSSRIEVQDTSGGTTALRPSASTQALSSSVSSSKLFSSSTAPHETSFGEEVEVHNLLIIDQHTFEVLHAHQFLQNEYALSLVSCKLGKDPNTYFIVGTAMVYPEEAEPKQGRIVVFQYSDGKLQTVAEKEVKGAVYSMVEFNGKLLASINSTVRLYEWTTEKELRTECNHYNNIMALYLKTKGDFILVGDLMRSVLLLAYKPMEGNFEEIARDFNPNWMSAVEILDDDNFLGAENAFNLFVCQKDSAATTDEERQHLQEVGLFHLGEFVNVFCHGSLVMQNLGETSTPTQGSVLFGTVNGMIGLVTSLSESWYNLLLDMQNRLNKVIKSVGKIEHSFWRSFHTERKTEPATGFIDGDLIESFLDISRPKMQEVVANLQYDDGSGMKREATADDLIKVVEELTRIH
In words: Western blot degradation of IKZF1 in hPBMCs (24 h). The essentials: as §1

For another assay, the target named is T3, GSPT1 (Homo sapiens, UniProt P15170+Q96SW2).
T3 construct: The supernatant was aspirated as the extracted total cell protein; endogenous in cells; host or cells: human peripheral blood mononuclear cells (hPBMCs)
T3 sequence (P15170 whole entry): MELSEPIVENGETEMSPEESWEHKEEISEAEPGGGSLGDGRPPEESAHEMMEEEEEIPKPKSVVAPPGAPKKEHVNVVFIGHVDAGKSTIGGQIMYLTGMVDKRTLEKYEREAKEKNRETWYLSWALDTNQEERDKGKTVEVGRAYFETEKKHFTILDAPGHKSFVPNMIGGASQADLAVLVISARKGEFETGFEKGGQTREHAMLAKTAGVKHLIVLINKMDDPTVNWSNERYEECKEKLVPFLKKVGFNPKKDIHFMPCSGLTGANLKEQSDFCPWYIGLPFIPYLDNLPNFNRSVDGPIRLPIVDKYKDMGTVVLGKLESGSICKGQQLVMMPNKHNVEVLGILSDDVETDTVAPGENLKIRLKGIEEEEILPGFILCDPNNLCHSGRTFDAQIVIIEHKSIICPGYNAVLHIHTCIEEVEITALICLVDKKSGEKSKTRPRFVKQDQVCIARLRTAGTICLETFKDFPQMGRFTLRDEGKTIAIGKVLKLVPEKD
T3 sequence (Q96SW2 whole entry): as the sequence (Q96SW2 whole entry) above
T3 sequence (Q16531 whole entry partner): as the sequence (Q16531 whole entry partner) above
The experiment in a line: Western blot degradation of GSPT1 in hPBMCs (24 h). The essentials:
as §1

In a further assay the target is T4, WEE1 (Homo sapiens, UniProt P30291+Q96SW2).
T4 construct: The supernatant was aspirated as the extracted total cell protein; endogenous in cells; host or cells: human peripheral blood mononuclear cells (hPBMCs)
T4 sequence (P30291 whole entry): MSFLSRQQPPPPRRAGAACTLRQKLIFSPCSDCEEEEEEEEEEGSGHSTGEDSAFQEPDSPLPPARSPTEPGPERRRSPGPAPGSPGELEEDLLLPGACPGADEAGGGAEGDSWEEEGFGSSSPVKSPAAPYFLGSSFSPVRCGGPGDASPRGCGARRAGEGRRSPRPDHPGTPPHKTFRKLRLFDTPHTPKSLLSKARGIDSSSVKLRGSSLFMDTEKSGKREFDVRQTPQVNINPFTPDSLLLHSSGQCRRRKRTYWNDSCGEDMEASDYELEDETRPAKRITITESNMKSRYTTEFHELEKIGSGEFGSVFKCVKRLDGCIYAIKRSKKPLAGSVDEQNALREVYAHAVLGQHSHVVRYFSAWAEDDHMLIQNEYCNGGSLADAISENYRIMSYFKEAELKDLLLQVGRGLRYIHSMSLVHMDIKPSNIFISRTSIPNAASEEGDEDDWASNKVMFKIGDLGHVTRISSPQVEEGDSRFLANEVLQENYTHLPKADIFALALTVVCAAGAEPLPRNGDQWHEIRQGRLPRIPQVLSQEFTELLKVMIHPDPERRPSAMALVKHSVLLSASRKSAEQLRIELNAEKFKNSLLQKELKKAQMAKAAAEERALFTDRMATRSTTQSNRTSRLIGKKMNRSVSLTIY
T4 sequence (Q96SW2 whole entry): as the sequence (Q96SW2 whole entry) above
T4 sequence (Q16531 whole entry partner): as the sequence (Q16531 whole entry partner) above
The experiment in a line: Western blot degradation of WEE1 in hPBMCs (24 h). The essentials: as §1

The next assay has as its target T5, CK1α (Homo sapiens, UniProt P48729+Q96SW2).
T5 construct: The supernatant was aspirated as the extracted total cell protein; endogenous in cells; host or cells: human peripheral blood mononuclear cells (hPBMCs)
In words: Western blot degradation of CK1α in hPBMCs (24 h). The essentials: as §1

Another assay addresses T6, IKZF3 (Homo sapiens, UniProt Q96SW2+Q9UKT9).
T6 construct: The supernatant was aspirated as the extracted total cell protein; endogenous in cells; host or cells: human peripheral blood mononuclear cells (hPBMCs)
In words: Western blot degradation of IKZF3 in hPBMCs (24 h). The essentials: as §1

T1 sequence (Q9UKS7 whole entry): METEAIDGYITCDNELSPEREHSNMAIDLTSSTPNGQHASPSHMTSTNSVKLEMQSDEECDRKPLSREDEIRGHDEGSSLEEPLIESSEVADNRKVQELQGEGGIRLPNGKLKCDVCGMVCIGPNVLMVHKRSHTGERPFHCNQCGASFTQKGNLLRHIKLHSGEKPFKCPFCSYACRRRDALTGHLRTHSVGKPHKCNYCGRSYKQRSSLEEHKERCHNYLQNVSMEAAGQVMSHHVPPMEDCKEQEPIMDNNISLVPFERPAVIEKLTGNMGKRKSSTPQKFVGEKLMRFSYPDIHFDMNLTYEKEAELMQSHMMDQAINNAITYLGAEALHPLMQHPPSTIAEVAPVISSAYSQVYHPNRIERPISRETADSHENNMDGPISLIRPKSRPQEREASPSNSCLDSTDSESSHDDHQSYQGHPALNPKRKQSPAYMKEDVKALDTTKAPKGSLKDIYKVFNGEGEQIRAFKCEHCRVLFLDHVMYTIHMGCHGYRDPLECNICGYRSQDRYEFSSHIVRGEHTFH
T1 sequence (Q96SW2 whole entry): as the sequence (Q96SW2 whole entry) above
T1 sequence (Q16531 whole entry partner): as the sequence (Q16531 whole entry partner) above
T5 sequence (P48729 whole entry): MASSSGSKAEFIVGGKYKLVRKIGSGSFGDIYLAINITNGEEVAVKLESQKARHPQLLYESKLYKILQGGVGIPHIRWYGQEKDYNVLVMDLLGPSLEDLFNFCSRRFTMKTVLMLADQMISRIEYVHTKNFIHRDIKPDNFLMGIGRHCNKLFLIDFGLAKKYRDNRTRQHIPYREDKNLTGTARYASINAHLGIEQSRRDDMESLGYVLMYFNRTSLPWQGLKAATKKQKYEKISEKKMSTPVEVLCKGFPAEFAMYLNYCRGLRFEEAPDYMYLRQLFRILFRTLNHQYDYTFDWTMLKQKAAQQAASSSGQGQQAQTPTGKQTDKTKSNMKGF
T5 sequence (Q96SW2 whole entry): as the sequence (Q96SW2 whole entry) above
T5 sequence (Q16531 whole entry partner): as the sequence (Q16531 whole entry partner) above

Take `Cc1ccc(N2CCN(Cc3ccc4c(c3)CN(N3CCC(=O)NC3=O)C4=O)CC2)cc1` [GT-06771, 1-(1-oxo-5-((4-(p-tolyl)piperazin-1-yl)methyl)isoindolin-2-yl)dihydropyrimidine-2,4(1H,3H)-dione]: the “IKZF2 substrate protein remaining %” value at IKZF2 is recorded as “A (0% ≤ substrate protein remaining % ≤80%)”. The “IKZF1 substrate protein remaining %” value on IKZF1 is on record as “B (80%< substrate protein remaining % ≤100%)”. Moreover, the “GSPT1 substrate protein remaining %” value at GSPT1 is “A (0% ≤ substrate protein remaining % ≤80%)”. For the same compound, on WEE1, the “WEE1 substrate protein remaining %” value is reported as “A (0% ≤ substrate protein remaining % ≤80%)”. At CK1α, the “CK1α substrate protein remaining %” value is “A (0% ≤ substrate protein remaining % ≤80%)”. The “IKZF3 substrate protein remaining %” value at IKZF3 is “A (0% ≤ substrate protein remaining % ≤80%)”.
Consider `O=C1CCN(N2Cc3cc(CN4CCN(c5ccc(Cl)cc5Cl)CC4)ccc3C2=O)C(=O)N1` [GT-06772, 1-(5-((4-(2,4-dichlorophenyl)piperazin-1-yl)methyl)-1-oxoisoindolin-2-yl)dihydropyrimidine-2,4(1H,3H)-dione], for which the “IKZF2 substrate protein remaining %” value on IKZF2 was “A (0% ≤ substrate protein remaining % ≤80%)”. Further, on IKZF1, the “IKZF1 substrate protein remaining %” value is listed as “B (80%< substrate protein remaining % ≤100%)”. Moreover, at GSPT1, the “GSPT1 substrate protein remaining %” value is recorded as “A (0% ≤ substrate protein remaining % ≤80%)”. For the same compound, on WEE1, the “WEE1 substrate protein remaining %” value was “A (0% ≤ substrate protein remaining % ≤80%)”. The “CK1α substrate protein remaining %” value on CK1α is “A (0% ≤ substrate protein remaining % ≤80%)”. The “IKZF3 substrate protein remaining %” value at IKZF3 is listed as “A (0% ≤ substrate protein remaining % ≤80%)”.
On to `O=C1CCN(N2Cc3cc(CN4CCN(c5c(Cl)cccc5Cl)CC4)ccc3C2=O)C(=O)N1` [GT-06774, 1-(5-((4-(2,6-dichlorophenyl)piperazin-1-yl)methyl)-1-oxoisoindolin-2-yl)dihydropyrimidine-2,4(1H,3H)-dione], for which the “IKZF2 substrate protein remaining %” value on IKZF2 is recorded as “A (0% ≤ substrate protein remaining % ≤80%)”. Moreover, the “IKZF1 substrate protein remaining %” value at IKZF1 is reported as “B (80%< substrate protein remaining % ≤100%)”. In addition, at GSPT1, the “GSPT1 substrate protein remaining %” value is “A (0% ≤ substrate protein remaining % ≤80%)”. Further, the “WEE1 substrate protein remaining %” value at WEE1 is “B (80%< substrate protein remaining % ≤100%)”. Besides, the “CK1α substrate protein remaining %” value at CK1α is “A (0% ≤ substrate protein remaining % ≤80%)”. For the same compound, the “IKZF3 substrate protein remaining %” value on IKZF3 is on record as “A (0% ≤ substrate protein remaining % ≤80%)”.
Regarding `O=C1CCN(N2Cc3cc(CN4CCN(c5ccc(Cl)c(Cl)c5)CC4)ccc3C2=O)C(=O)N1` [GT-06775, 1-(5-((4-(3,4-dichlorophenyl)piperazin-1-yl)methyl)-1-oxoisoindolin-2-yl)dihydropyrimidine-2,4(1H,3H)-dione], the “IKZF2 substrate protein remaining %” value at IKZF2 is “A (0% ≤ substrate protein remaining % ≤80%)”. For the same compound, the “IKZF1 substrate protein remaining %” value at IKZF1 was “B (80%< substrate protein remaining % ≤100%)”. Also, the “GSPT1 substrate protein remaining %” value at GSPT1 was “A (0% ≤ substrate protein remaining % ≤80%)”. Moreover, the “WEE1 substrate protein remaining %” value on WEE1 is “B (80%< substrate protein remaining % ≤100%)”. Besides, on CK1α, the “CK1α substrate protein remaining %” value is given as “A (0% ≤ substrate protein remaining % ≤80%)”. Besides, on IKZF3, the “IKZF3 substrate protein remaining %” value is on record as “A (0% ≤ substrate protein remaining % ≤80%)”.
On to `O=C1CCN(N2Cc3cc(CN4CCN(c5ccc(F)cc5F)CC4)ccc3C2=O)C(=O)N1` [GT-06778, 1-(5-((4-(2,4-difluorophenyl)piperazin-1-yl)methyl)-1-oxoisoindolin-2-yl)dihydropyrimidine-2,4(1H,3H)-dione], for which the “IKZF2 substrate protein remaining %” value on IKZF2 is “B (80%< substrate protein remaining % ≤100%)”. Besides, the “IKZF1 substrate protein remaining %” value on IKZF1 is recorded as “B (80%< substrate protein remaining % ≤100%)”. On GSPT1, the “GSPT1 substrate protein remaining %” value is “A (0% ≤ substrate protein remaining % ≤80%)”. The “WEE1 substrate protein remaining %” value at WEE1 is recorded as “B (80%< substrate protein remaining % ≤100%)”. Moreover, the “CK1α substrate protein remaining %” value on CK1α is reported as “A (0% ≤ substrate protein remaining % ≤80%)”. Besides, the “IKZF3 substrate protein remaining %” value on IKZF3 is given as “B (80%< substrate protein remaining % ≤100%)”.
Take `O=C1CCN(N2Cc3cc(CN4CCN(c5cc(F)ccc5F)CC4)ccc3C2=O)C(=O)N1` [GT-06779, 1-(5-((4-(2,5-difluorophenyl)piperazin-1-yl)methyl)-1-oxoisoindolin-2-yl)dihydropyrimidine-2,4(1H,3H)-dione]: the “IKZF2 substrate protein remaining %” value at IKZF2 is recorded as “B (80%< substrate protein remaining % ≤100%)”. On IKZF1, the “IKZF1 substrate protein remaining %” value is on record as “B (80%< substrate protein remaining % ≤100%)”. For the same compound, on GSPT1, the “GSPT1 substrate protein remaining %” value was “B (80%< substrate protein remaining % ≤100%)”. Moreover, at WEE1, the “WEE1 substrate protein remaining %” value is reported as “B (80%< substrate protein remaining % ≤100%)”. The “CK1α substrate protein remaining %” value on CK1α is listed as “A (0% ≤ substrate protein remaining % ≤80%)”. The “IKZF3 substrate protein remaining %” value on IKZF3 is on record as “B (80%< substrate protein remaining % ≤100%)”.
`O=C1CCN(N2Cc3cc(CN4CCN(c5c(F)cccc5F)CC4)ccc3C2=O)C(=O)N1` [GT-06780, 1-(5-((4-(2,6-difluorophenyl)piperazin-1-yl)methyl)-1-oxoisoindolin-2-yl)dihydropyrimidine-2,4(1H,3H)-dione]: on IKZF2, the “IKZF2 substrate protein remaining %” value is recorded as “B (80%< substrate protein remaining % ≤100%)”. The “IKZF1 substrate protein remaining %” value at IKZF1 is listed as “B (80%< substrate protein remaining % ≤100%)”. In addition, the “GSPT1 substrate protein remaining %” value on GSPT1 is recorded as “B (80%< substrate protein remaining % ≤100%)”. The “WEE1 substrate protein remaining %” value at WEE1 is given as “B (80%< substrate protein remaining % ≤100%)”. For the same compound, the “CK1α substrate protein remaining %” value at CK1α is on record as “A (0% ≤ substrate protein remaining % ≤80%)”. In addition, the “IKZF3 substrate protein remaining %” value on IKZF3 is listed as “B (80%< substrate protein remaining % ≤100%)”.
For `O=C1CCN(N2Cc3cc(CN4CCN(c5ccc(F)c(F)c5)CC4)ccc3C2=O)C(=O)N1` [GT-06781, 1-(5-((4-(3,4-difluorophenyl)piperazin-1-yl)methyl)-1-oxoisoindolin-2-yl)dihydropyrimidine-2,4(1H,3H)-dione], the “IKZF2 substrate protein remaining %” value at IKZF2 was “B (80%< substrate protein remaining % ≤100%)”. Also, the “IKZF1 substrate protein remaining %” value at IKZF1 was “B (80%< substrate protein remaining % ≤100%)”. Besides, the “GSPT1 substrate protein remaining %” value at GSPT1 is “A (0% ≤ substrate protein remaining % ≤80%)”. For the same compound, the “WEE1 substrate protein remaining %” value at WEE1 is on record as “B (80%< substrate protein remaining % ≤100%)”. Further, the “CK1α substrate protein remaining %” value on CK1α is on record as “A (0% ≤ substrate protein remaining % ≤80%)”. In addition, at IKZF3, the “IKZF3 substrate protein remaining %” value is “B (80%< substrate protein remaining % ≤100%)”.
Consider `O=C1CCN(N2Cc3cc(CN4CCN(c5cc(F)cc(F)c5)CC4)ccc3C2=O)C(=O)N1` [GT-06782, 1-(5-((4-(3,5-difluorophenyl)piperazin-1-yl)methyl)-1-oxoisoindolin-2-yl)dihydropyrimidine-2,4(1H,3H)-dione], for which, on IKZF2, the “IKZF2 substrate protein remaining %” value is “B (80%< substrate protein remaining % ≤100%)”. The “IKZF1 substrate protein remaining %” value on IKZF1 is listed as “B (80%< substrate protein remaining % ≤100%)”. Further, on GSPT1, the “GSPT1 substrate protein remaining %” value is on record as “A (0% ≤ substrate protein remaining % ≤80%)”. The “WEE1 substrate protein remaining %” value at WEE1 is reported as “B (80%< substrate protein remaining % ≤100%)”. Besides, the “CK1α substrate protein remaining %” value on CK1α is “A (0% ≤ substrate protein remaining % ≤80%)”. At IKZF3, the “IKZF3 substrate protein remaining %” value is “B (80%< substrate protein remaining % ≤100%)”.

These data come from patent US20260356819A1, “OXOISOINDOLINYL-SUBSTITUTED […] DERIVATIVE AND USE THEREOF” (GLUETACS THERAPEUTICS (SHANGHAI) CO., LTD., priority 2023, published 2026).
